These results are taken from patent publication US10429397B2 (priority 2015, dated 2019).

This series has as its system HeLa cells. Description: Fluorescence microscopy assay of cell permeability. The format is cell-based. The conditions noted are these: 5 mM, 1 hour, streptavidin-Cy5. As to the method: The cells were then incubated in serum free media for 2 hours, followed by incubation with APB (5 mM) in serum free media (500 μL) for 1 hour. […] Cells were incubate with paraformaldehyde (4%, 500 μL) for 20 minutes at room temperature, then washed with 1×PBS (500 μL) three times. […] Streptavidin Cy5 (10 ug/mL) in blocking buffer (50 μL) was added and incubated with cells for 30 minutes. […] Cells were incubated with DAPI (100 μg/mL) for 5 minutes, followed by washing with 1×PBS (500 μL) 3 times each for 5 min. The cover slips were washed in water then installed on a glass slide containing Mowiol mounting solution (50 μL, Sigma Aldrich) saturated with DABCO (Sigma Aldrich). The slide was incubate at 31° C. for 30 minutes, and then kept at 4° C. until microscopy. Fluorescence photos were generated on an Olympus fluorescence microscope using laser wavelengths corresponding to DAPI (350 nm) and Cy5 (650 nm). DAPI photos were generated at 10 ms and Cy5 at 200 ms. Merged images were created using Adobe Photoshop.

SMILES strings stand for the structures.

On to `Nc1ncnc2c1ncn2[C@@H]1O[C@H](COP(=O)(O)OP(=O)(O)OP(=O)(O)O)[C@@H](O)[C@H]1O` [ATP, adenosine-5′-triphosphate, reference compound], for which the “biotin fluorescence signal in cells (cell permeability)” value is reported as “no biotin signal”.
